Source: patent US12263154B2, “Composition using 4′,6,7-trimethoxyisoflavone and catechol for managing pulmonary fibrosis” (A-CHEMBIO CO., LTD, priority 2020, dated 2025)

What was measured:
lung fibrosis = test: Histopathological examination in bleomycin pulmonary fibrosis animal model; type: in vivo, mice; settings: BLM 3 mg/kg into airways, samples administered daily; for size of the fibrosis area according to the tissue scoring system (Ashcroft score): Masson's trichrome, graph at bottom of FIG. 8; for size of the increased fibrosis area (H&E staining): lung on day 29, FIG. 8
Description: The airways of the mice were incised, and bleomycin (3 mg/kg, BLM) was injected into the airways. After injection, the incision site was sutured with nylon thread, samples of BCT and/or BCC were administered daily 24 hours after bleomycin was injected. Mice were raised to 28 days from the start date of the experiment and sacrificed on day 29 to separate the broncho-alveolar lavage fluid (BALF) and lung tissue and used in further experiments. In order to evaluate lung fibrosis, animal models of each control group and experimental group were sacrificed, and the lungs were extracted from these animal models, fixed in 10% neutral buffered formalin (NBF), and then embedded with paraffin to produce tissue sections with a thickness of 2-4 um. After the sections were prepared, Hematoxylin-Eosin staining and Masson's trichrome staining were performed for comparison of histological findings and observed with an optical microscope. H&E staining was performed to evaluate inflammation and epithelial cell hypertrophy due to lung fibrosis, and Masson's trichrome staining was used to evaluate fibrosis using the following tissue scoring method (Scoring system, Ashcroft score). [table]

[1] = system: alveolar epithelial A549 cells; test: Cell migration inhibition (scratch), EMT induced by TGF-β1; type: cell-based; settings: TGF-β1-treated A549; BCT 10 μM, BCC 0.5 μM; 72 hours; FIG. 2
Description: As EMT progresses, the proliferation and movement of epithelial cells increases, cell penetration increases, and cell morphology changes, thereby confirming EMT inhibitory efficacy and evaluating the degree of expression of mechanism-related factors. A549 cells were seeded at 1×10^5 cells in 1 mL per well in a 6-well plate and cultured at 37° C. under 5% CO 2 for 24 hours. After 24 hours, a single cell layer was scratched with a 1 mL tip and a medium containing TGF-β1, TGF-β1, and sample BCT (10 μM) or TGF-β1, and sample BCC (0.5 μM) was added to each well. After culturing for 72 hours, the degree of cell migration was confirmed under a microscope, and images were taken.

[2] = system: alveolar epithelial A549 cells; test: Cell penetration inhibition (Matrigel trans-well), EMT induced by TGF-β1; type: cell-based; settings: TGF-β1-treated A549; BCT 10 μM, BCC 0.5 μM; 24 hours; FIG. 3
Description: As EMT progresses, the proliferation and movement of epithelial cells increases, cell penetration increases, and cell morphology changes, thereby confirming EMT inhibitory efficacy and evaluating the degree of expression of mechanism-related factors.
Trans-well inserts (Corning, USA) were coated with Matrigel® (Corning) at 2 mg/L. Dilute A549 cells to about 5×10^5/mL in 200 μl of serum-free media, and TGF-β1, TGF-β1 and sample BCT (10 μM) or TGF-β1 and sample BCC (0.5 μM) was added and dispensed into trans-well inserts. The cells were cultured for 24 hours by dispensing a medium containing 10% serum in the receive chambers. After the culture was completed, the cells remaining in the insert were removed, and the cells penetrating the receiving chamber were stained with crystal violet and photographed under a microscope.

[3] = system: alveolar epithelial A549 cells; test: Cell morphological changes, EMT induced by TGF-β1; type: cell-based; settings: changed by TGF-β1 treatment, BCT 10 μM, BCC 0.5 μM, 48 hours, FIG. 6
Description: A549 cells were seeded on a 60 mm plate at 1×10^5 /mL and cultured for 24 hours. Then, 5 mL of a medium containing TGF-β1, TGF-β1 and sample BCT (10 μM) and/or TGF-β1 and sample BCC (0.5 μM) was added to each well and incubated for another 48 hours. After culturing, the cells were checked under a microscope, and images were taken.

cells in BALF = test: Change in cell number in bronchoalveolar lavage fluid (BALF), pulmonary fibrosis animal model; type: in vivo, mice; settings: increased in BLM-administered group; FIG. 10
Description: (§1) The airways of the mice were incised, and bleomycin (3 mg/kg, BLM) was injected into the airways. After injection, the incision site was sutured with nylon thread, samples of BCT and/or BCC were administered daily 24 hours after bleomycin was injected. Mice were raised to 28 days from the start date of the experiment and sacrificed on day 29 to separate the broncho-alveolar lavage fluid (BALF) and lung tissue and used in further experiments.
Pulmonary fibrosis is characterized by an increase in the total number of cells and the percentage of neutrophils in the BALF fluid.
After collecting BALF from each experimental animal group, neutrophils and alveolar macrophages, including total cells, were measured. The method of measuring the total number of cells in BALF, the ratio of neutrophils and alveolar macrophages, etc., is as follows. BALF was mixed with trypan blue in a ratio of 1:1, and then the total number of cells was counted as ×104/BALF 1 mL using a hemocytometer (Fisher Scientific, PA, USA). The prepared BALF was spread on a slide glass and then stained with Diff Quik (manufactured by Sysmex Corporation, USA), the number of neutrophils and alveolar macrophages among a total of 200 cells was counted under a microscope, and the ratio was measured and recorded.

[4] = system: human fibroblasts (HDF, Human Dermal Fibroblast); test: MTT cytotoxicity assessment; type: cell-based; settings: 24 hours and 48 hours, FIG. 1
Description: (§2) Using the MTT (3-(4,5-dimethylthiazol-2yl)-2,5-diphenyl-2H-tetrazolium bromide) assay was applied to investigate the effect of TMF (BCT) and catechol (BCC) on cell proliferation. 5×10^3 cells/well were placed in a 96-well plate and incubated for 24 hours at 37° C., 5% CO2 incubator. Then, each sample was treated in each well according to the concentration and then incubated for 24 hours. Then, after washing with PBS, 20 μL of MTT dissolved in PBS and 200 μL of FBS-free DMEM were treated in each well and then incubated for 4 hours under the same conditions after blocking the light. After 4 hours, the culture solution was removed, treated with 200 μL of DMSO (dimethyl sulfoxide), and left at 37° C. for 2 hours, and absorbance was measured at 570 nm using a microplate reader.
(§3) The cell viability after 24 hours and 48 hours is shown in FIG. 1 as a percentage compared to the control group, the untreated sample group.

muscle cells (C2C12) = test: MTT cytotoxicity assessment; type: cell-based; settings: 24 hours and 48 hours, FIG. 1
Description: as §2, §3

[5] = system: human lung fetal cells (MRC-5); test: MTT cytotoxicity assessment; type: cell-based; settings: 24 hours and 48 hours, FIG. 1
Description: as §2, §3

[6] = system: EMT mechanism-related factors in A549 cells; test: Western blot of EMT mechanism-related factors; type: cell-based; settings: BCT 10 μM, BCC 0.5 μM; for expression of E-cadherin: decreased by TGF-β1 treatment; for expression of E-cadherin / expression of Cyr61 / expression of Fibronectin / expression of Integrin β3 / expression of SMA2/3 / expression of Vimentin / expression of α-Sma: FIG. 4; for expression of Cyr61 / expression of Fibronectin / expression of Integrin β3 / expression of SMA2/3 / expression of Vimentin / expression of α-Sma / expression of pAKT / expression of pERK: increased by TGF-β1 treatment; for expression of pAKT / expression of pERK: FIG. 5
Description: 2×10^6 A549 cells were attached to a 100 mm culture vessel for 24 hours, treated with TGF-β1, TGF-β1 and sample BCT (10 μM) and/or TGF-β1 and sample BCC (0.5 μM)) and cultured. After collecting all of the cultured cells, the cell precipitate was dissolved in a cell lysate RIPA lysis buffer (LPS solution, Korea, Seoul), followed by centrifugation at 13,000 rpm for 20 minutes to obtain a supernatant. The total amount of protein was quantified using the BCA Protein assay kit (Thermo. Scientific, Wilmington, DE, USA) solution. After mixing the protein and 6× sample buffer (1 mL of glycerol, 0.5 mL of β- Mercaptoethanol, 3 mL of 10% SDS, 1.25 mL of 1 M Tris-HCl, 1-2 μg of bromophenol blue), electrophoresis was performed on SDS polyacrylamide gel. After transferring to Nitrocellulose Membrane (Millipore, Billerica, MA, USA) and blocking with 5% non-fat skim milk, protein expression levels of related factors were measured using various antibodies, and whether the protein amount was the same was confirmed using actin. Each of the primary antibodies was diluted and reacted at room temperature for 4 hours, washed 3 times with TBST, the secondary antibody was diluted at 1:5,000 and reacted at room temperature for 30 minutes. After washing with TBST, a band was obtained after light emission with ECL solution (LPS solution, Korea, Seoul). The results are shown in FIG. 4 for the Smad-dependent factor and FIG. 5 for the Smad-independent factor.

[7] = system: major markers of pulmonary fibrosis in lung tissue; test: Western blot of protein expression level using lung tissue, pulmonary fibrosis animal model; type: in vivo, mice; settings: compared to BLM-induced group; FIG. 9
Description: as §1
Animal models of each control group and the experimental group raised for 28 days were sacrificed, and lung tissue samples and serum samples were obtained from these animal models, respectively, and stored in a deep freezer at −70° C. Western blotting was performed for α-Sma, TGF-β1, Fibronectin, and E-cadherin proteins known as major markers of pulmonary fibrosis.
Lung tissue was put into T-PER buffer (lysis buffer, Thermo. Scientific, Wilmington, DE, USA) as a standard of 500 μL per 50 mg of tissue, and the tissue was homogenized using a homogenizer. The homogenized tissue was centrifuged at 13,000 rpm, and the supernatant was used as a sample for Western blot. The concentration of the tissue homogenate was quantified using a BCA Protein assay kit (Thermo. Scientific, Wilmington, DE, USA) solution. After mixing the protein and 6× sample buffer (1 mL of glycerol, 0.5 mL of β-Mercaptoethanol, 3 mL of 10% SDS, 1.25 mL of 1 M Tris-HCl, 1-2 μg of bromophenol blue), electrophoresis was performed on SDS polyacrylamide gel. After transferring to Nitrocellulose Membrane (Millipore, Billerica, MA, USA) and blocking with 5% non-fat skim milk, protein expression levels of related factors were measured using various antibodies, and whether the protein amount was the same was confirmed using actin. Each of the primary antibodies was diluted and reacted at room temperature for 4 hours, washed 3 times with TBST, the secondary antibody was diluted at 1:5,000 and reacted at room temperature for 30 minutes. After washing with TBST, a band was obtained after light emission with ECL solution (LPS solution, Korea, Seoul).

Row | SMILES | size of the fibrosis area according to the tissue scoring system (Ashcroft score) (lung fibrosis) | size of the increased fibrosis area (H&E staining) (lung fibrosis) | cell migration [1] | number of cells penetrating into the receiving chamber [2] | cell morphology [3] | number of lymphocytes in BALF (cells in BALF) | number of neutrophils in BALF (cells in BALF) | total number of cells in BALF (cells in BALF) | cytotoxicity (cell viability) [4] | cytotoxicity (cell viability) (muscle cells (C2C12)) | cytotoxicity (cell viability) [5] | expression of E-cadherin [6] | expression of Cyr61 [6] | expression of Fibronectin [6] | expression of Integrin β3 [6] | expression of SMA2/3 [6] | expression of Vimentin [6] | expression of α-Sma [6] | expression of pAKT [6] | expression of pERK [6] | other results
1 | Oc1ccccc1O [BCC, 1,2-dihydroxybenzene] | reduced | reduced | decreased | decreased | recovered similarly to the control | significantly decreased | significantly decreased | significantly decreased | did not show any particular cytotoxicity | did not show any particular cytotoxicity | did not show any particular cytotoxicity | increased | decreased | decreased | decreased | decreased | decreased | decreased | decreased | decreased | E-cadherin expression in lung tissue [7]: increased; expression level of TGF-β1 in lung tissue [7]: decreased; expression level of fibronectin in lung tissue [7]: decreased; expression level of α-SMA in lung tissue [7]: decreased
2 | COc1ccc(-c2coc3cc(OC)c(OC)cc3c2=O)cc1 [BCT, 4′,6,7-trimethoxyisoflavone] | reduced | reduced | decreased | decreased | recovered similarly to the control | significantly decreased | significantly decreased | significantly decreased | did not show any particular cytotoxicity | did not show any particular cytotoxicity | did not show any particular cytotoxicity | increased | decreased | decreased | decreased | decreased | decreased | decreased | decreased | decreased | E-cadherin expression in lung tissue [7]: increased; expression level of TGF-β1 in lung tissue [7]: decreased; expression level of fibronectin in lung tissue [7]: decreased; expression level of α-SMA in lung tissue [7]: decreased
